Reference: PubChem BioAssay AID330 (DTP/NCI, 2004)
Several values for one entry are separate records, joined by “and”; a condition that tells them apart may be missing. Equal entries are not always repeated. Inconclusive results and toxic doses are left out.

System: P388 leukemia ip, CD2F1 mice, survival T/C
Assay: NCI In Vivo Anticancer Drug Screen. Data for tumor model P388 Leukemia (intraperitoneal) in CD2F1 (CDF1) mice
Settings: endpoint: median survival time, higher = longer survival
Summary of the method: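 Mice carrying the transplanted tumor received test compound or vehicle. Survival was recorded in each group, and the value is the treated-group measurement divided by that of the vehicle-treated control group.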

[1] = dose: 50.0 mg/kg/injection, schedule: Q01DX005 (ip), vehicle: saline with Tween-80
[2] = dose: 100.0 mg/kg/injection, schedule: Q01DX005 (ip), vehicle: saline with Tween-80
[3] = dose: 200.0 mg/kg/injection, schedule: Q01DX005 (ip), vehicle: saline with Tween-80
[4] = dose: 50.0 mg/kg/injection, schedule: Q01DX009 (ip), vehicle: saline with Tween-80
[5] = dose: 200.0 mg/kg/injection, schedule: Q01DX009 (ip), vehicle: saline with Tween-80
[6] = dose: 50.0 mg/kg/injection, schedule: Q01DX009 (ip), vehicle: Klucel (hydroxypropylcellulose) (HPC)
[7] = dose: 100.0 mg/kg/injection, schedule: Q01DX009 (ip), vehicle: Klucel (hydroxypropylcellulose) (HPC)

With `NN=C(c1ccc(Br)cc1)c1ccc(Br)cc1` the T/C (dose: 25.0 mg/kg/injection, schedule: Q04DX002 (ip), vehicle: saline with Tween-80) was 100 % of control, the T/C (dose: 50.0 mg/kg/injection, schedule: Q04DX002 (ip), vehicle: saline with Tween-80) was 101 % of control and the T/C (dose: 100.0 mg/kg/injection, schedule: Q04DX002 (ip), vehicle: saline with Tween-80) was 100 % of control and 105 % of control.
With `COc1ccccc1Nc1nc(-c2ccc(O)c(O)c2)cs1` the T/C [1] was 97 % of control, the T/C [2] was 89 % of control and the T/C [3] was 103 % of control.
`O=C(O)c1ccnc2nc[nH]c12` was tested, and the T/C (dose: 100.0 mg/kg/injection, schedule: Q04DX002 (ip), vehicle: Klucel (hydroxypropylcellulose) (HPC)) was 100 % of control, the T/C (dose: 200.0 mg/kg/injection, schedule: Q04DX002 (ip), vehicle: Klucel (hydroxypropylcellulose) (HPC)) was 106 % of control and the T/C (dose: 400.0 mg/kg/injection, schedule: Q04DX002 (ip), vehicle: Klucel (hydroxypropylcellulose) (HPC)) was 100 % of control.
In the case of `Cc1ccccc1NC(CCN1CCCCC1)=NC(C)(C)C`, the T/C [4] is reported as 111 % of control, the T/C (dose: 100.0 mg/kg/injection, schedule: Q01DX009 (ip), vehicle: saline with Tween-80) is reported as 103 % of control and the T/C [5] is reported as 100 % of control.
For `O/N=C/c1ccc(Cl)cc1Cl`, the T/C (dose: 25.0 mg/kg/injection, schedule: Q01DX005 (ip), vehicle: saline with Tween-80) was 98 % of control, the T/C [1] was 107 % of control and the T/C [2] was 92 % of control. For the same compound, the T/C [3] was 96 % of control.
`CCN(CC)CCOC12CC3CC(CC(C3)C1)C2` was tested, and the T/C (dose: 12.5 mg/kg/injection, schedule: Q01DX005 (ip), vehicle: Klucel (hydroxypropylcellulose) (HPC)) was 104 % of control, the T/C (dose: 25.0 mg/kg/injection, schedule: Q01DX005 (ip), vehicle: Klucel (hydroxypropylcellulose) (HPC)) was 101 % of control and the T/C (dose: 50.0 mg/kg/injection, schedule: Q01DX005 (ip), vehicle: Klucel (hydroxypropylcellulose) (HPC)) was 100 % of control and 104 % of control.
In the case of `CN(CCCNc1c2ccccc2nc2ccccc12)CCCNc1c2ccccc2nc2ccccc12`, the T/C (dose: 1.25 mg/kg/injection, schedule: Q01DX009 (ip), vehicle: other) is reported as 115 % of control.
In the case of `O=c1c2cc3ccccc3cc2c(=O)n2n1CC=CC2`, the T/C [6] is reported as 97 % of control and the T/C [7] is reported as 90 % of control.
With `CCOC(=O)CSc1ccc(C)cc1` the T/C (dose: 25.0 mg/kg/injection, schedule: Q01DX009 (ip), vehicle: saline) was 105 % of control, the T/C (dose: 50.0 mg/kg/injection, schedule: Q01DX009 (ip), vehicle: saline) was 89 % of control and the T/C (dose: 100.0 mg/kg/injection, schedule: Q01DX009 (ip), vehicle: saline) was 96 % of control. The T/C (dose: 200.0 mg/kg/injection, schedule: Q01DX009 (ip), vehicle: saline) was 99 % of control.
`CCNc1ccc2c(-c3ccccc3C(=O)O)c3ccc(=[N+](CC)CC)cc-3oc2c1` was tested, and the T/C [1] was 105 % of control and the T/C [2] was 95 % of control.
`O=C(O)CCN1C(=O)c2ccccc2C1=O` was tested, and the T/C (dose: 100.0 mg/kg/injection, schedule: Q04DX003 (ip), vehicle: saline with Tween-80) was 100 % of control, the T/C (dose: 200.0 mg/kg/injection, schedule: Q04DX003 (ip), vehicle: saline with Tween-80) was 100 % of control and the T/C (dose: 400.0 mg/kg/injection, schedule: Q04DX003 (ip), vehicle: saline with Tween-80) was 95 % of control.
In the case of `O=C1C=C(CCC2=CC(=O)c3ccccc3C2=O)C(=O)c2ccccc21`, the T/C (dose: 60.0 mg/kg/injection, schedule: Q01DX005 (ip), vehicle: saline with Tween-80) is reported as 100 % of control and the T/C (dose: 120.0 mg/kg/injection, schedule: Q01DX005 (ip), vehicle: saline with Tween-80) is reported as 94 % of control.
For `O=S1(=O)NC(=NC2CCCC2)c2ccccc21`, the T/C [1] was 111 % of control, the T/C [2] was 102 % of control and the T/C [3] was 101 % of control.
In the case of `NC(=O)NC(C/[N+]([O-])=N/O)C(=O)O` (stereo unspecified), the T/C (dose: 12.5 mg/kg/injection, schedule: Q01DX009 (ip), vehicle: water) is reported as 100 % of control, the T/C (dose: 25.0 mg/kg/injection, schedule: Q01DX009 (ip), vehicle: water) is reported as 96 % of control and the T/C (dose: 50.0 mg/kg/injection, schedule: Q01DX009 (ip), vehicle: water) is reported as 98 % of control. For the same compound, the T/C (dose: 100.0 mg/kg/injection, schedule: Q01DX009 (ip), vehicle: water) was 98 % of control.
With `O=C(NC1CCCCC1)OCc1c(COC(=O)NC2CCCCC2)c(-c2ccc(Cl)c(Cl)c2)n2c1CCC2` the T/C (dose: 6.25 mg/kg/injection, schedule: Q01DX009 (ip), vehicle: Klucel (hydroxypropylcellulose) (HPC)) was 94 % of control, the T/C (dose: 12.5 mg/kg/injection, schedule: Q01DX009 (ip), vehicle: Klucel (hydroxypropylcellulose) (HPC)) was 119 % of control and the T/C (dose: 25.0 mg/kg/injection, schedule: Q01DX009 (ip), vehicle: saline with Tween-80) was 150 % of control and 168 % of control. The T/C [6] was 161 % of control, the T/C [4] was 166 % of control and 170 % of control and 174 % of control and the T/C [7] was 189 % of control. The T/C [5] was 91 % of control.
`Cc1c(C)c(C)c(C(=O)c2ccccc2C(=O)NCCSC(C)(C)C)c(C)c1C` was tested, and the T/C (dose: 30.0 mg/kg/injection, schedule: Q01DX005 (ip), vehicle: Klucel (hydroxypropylcellulose) (HPC)) was 98 % of control, the T/C (dose: 60.0 mg/kg/injection, schedule: Q01DX005 (ip), vehicle: Klucel (hydroxypropylcellulose) (HPC)) was 93 % of control and 96 % of control and the T/C (dose: 120.0 mg/kg/injection, schedule: Q01DX005 (ip), vehicle: Klucel (hydroxypropylcellulose) (HPC)) was 92 % of control. The T/C (dose: 240.0 mg/kg/injection, schedule: Q01DX005 (ip), vehicle: Klucel (hydroxypropylcellulose) (HPC)) was 87 % of control.
